From patent US9539298B2, “Lissencephaly therapeutic agent” (OSAKA CITY UNIVERSITY, priority 2010, dated 2017)

Columns and labels:
[1] = system: LIS1 heterozygous mouse embryos; assay: LIS1 protein in mouse embryo brains after SNJ-1945 intraperitoneal administration; assay type: in vivo
Protocol: A neo(−)129S-Pafah1b1^tm2Awb/J homozygous male mouse lacking neo gene was mated with five homozygous EII-Cre transgenic female mice (FVB/N-Tg (EIIa-cre) C5379Lmgd/J, The Jackson Laboratory) by raising them in the same mouse cage. In total, six sets of mouse cages were prepared for the mating experiment. The neo(−)129S-Pafah1b1^tm2Awb/J homozygous mouse were prepared in the same manner as above. Plug check (confirmation of mating) was carried out every morning between 7 and 10 am, thereby determining the gestation cycle. SNJ-1945 was dissolved in dimethyl sulfoxide (DMSO; Sigma, D8779) at a concentration of 100 mg/ml, and intraperitoneally injected to the pregnant mice so that the administration amount became 100 μg per gram of body weight upon Day 12 of embryo period (E12) (intraperitoneal administration). To determine the effect of SNJ-1945 administration, LIS1 proteins of normal mouse embryos and those of LIS1 heterozygous mouse embryos (administered with SNJ-1945) were measured. […]
Pregnant mice were killed by cervical fracture, and the mouse embryos were immediately isolated to obtain the brain tissues. For the measurement of LIS1 protein amount, the brain weights were immediately measured as soon as the brains were removed.

[2] = system: fibroblasts derived from human lissencephaly patient (Lis1 +/−); assay: Fluorescence immunostaining of fibroblasts derived from a human lissencephaly patient; assay type: cell-based; settings: 200 μM, two hours
Protocol: The establishment of fibroblasts was performed in the following manner. Under a germ-free condition, a portion of epidermis (5 mm square) was obtained from a lissencephaly patient. The obtained epidermis was transported for 4 hours at room temperature while stored in a culture solution (E-MEM (Wako Pure Chemical Industries, Ltd., 051-07615), 10% fetal bovine blood serum (Equitech-Bio Inc, SFBM30-1798, 1×L-glutamine (Gibco, 25030), 1× Pen-Strep (Gibco, 15140)) (*the culture solution with this formulation is used hereinafter). After transportation, the tissue fragment was cut into a 1 mm square, fixed to a culture flask (Becton Dickinson 353009), and cultured for three weeks in 6 ml of a culture solution. After the 3-week culture, the amplification of fibroblasts from the tissue fragment was confirmed; then, the fragment was washed with a phosphate buffer physiological saline solution (phosphate buffered saline, PBS (−), 137 mM NaCl, 2.7 mM KCl, 10 mM Na2HPO4, 1.8 mM KH2PO4, pH 7.4), and 0.5 ml of trypsin-EDTA (Gibco, 25200) was added, followed by reaction for 5 minutes at 37° C. to separate the cells. Then, 10 ml of a culture solution was added, and the fragment was transferred to a 10 cm petri dish (Greiner, 664-160) for culture.
To observe the cells with a microscope, the cells were cultured on cover glasses. The cover glasses (24×24 No. 1, Matsunami Glass Ind., Ltd.) were immersed in 0.1 M hydrochloric acid for 20 minutes. After washing with water, the cover glasses were placed in 70% ethanol, and kept in a clean bench. In the clean bench, each cover glass was placed on the bottom of each well of a 6-well plate (Falcon 353046). After the ethanol was dried, 0.5×10^5 fibroblasts per well were added and cultured for 16 hours, thereby adhering the cells onto the cover glasses.
A SNJ-1945-containing culture solution was prepared. […]

Structure (SMILES): COCCOCCOC(=O)N[C@@H](CC(C)C)C(=O)N[C@@H](Cc1ccccc1)C(=O)C(=O)NC1CC1 [compound 17, ((1S)-1-((((1S)-1-Benzyl-2,3-dioxo-3-(cyclopropylamino)propyl)amino)carbonyl)-3-methylbutyl)carbamic acid 5-methoxy-3-oxapentyl ester]
- LIS1 protein amount in embryo brain ([1]; 100 μg per gram of body weight IP to pregnant mice, E12, FIG. 6): recovered to a substantially normal level
- duration of the effect on LIS1 protein after a single dose ([1]; 100 μg/g IP to pregnant mice, E12): continued for at least three days
- intracellular distribution of LIS1 ([2]; FIGS. 15 and 16): causes LIS1 to be accumulated around the nucleus or centrosome again
- intracellular distribution of cytoplasmatic dynein ([2]; FIGS. 17 and 18): cytoplasmatic dynein became completely diffused again from the region around the nucleus to the cell marginal zone
- intracellular distribution of β-COP-coated vesicles ([2]; FIGS. 19 and 20): β-COP-coated vesicles became distributed evenly from the region around the nucleus to the cell marginal zone again
